# Measurements: patent US8530404B2, “Compounds and methods for treatment of cancer” (FibroGen, Inc., priority 2005, dated 2013)
# Marks after values point to notes of the source that are not given here.
# Legend:
# human H-460 lung tumors = test: Subcutaneously implanted human H-460 lung tumor mouse xenograft (Example 1); format: in vivo; conditions: for Mean Tumor Weight at Necropsy: day 32
# From the text: Immuno-compromised athymic CD-1 nu/nu nude mice males (5-6 weeks old) were used in this study (Charles River Laboratories, Wilmington, Mass.). Animals were maintained in a HEPA-filtered environment during the experimental period. Cages, food, and bedding were autoclaved. Animal diets were obtained from Harlan Teklad (Madison, Wis.). […] The human H460 lung cancer cell line used was obtained from the National Cancer Institute. (Brower et al., (1986) Cancer Res 46:798-806.) Xenografted H-460 tumors are sensitive to chemotherapeutics commonly used in treatment of lung cancer. […] A stock tumor was established by subcutaneously injecting a cell suspension into nude mice. The resulting tumor was maintained in nude mice subcutaneously as tumor stock prior to use. Tumor implantation was performed when the stock tumors were in log phase of growth. Before implantation, tumor tissue was harvested from stock mice and placed in RPMI-1640 medium. Necrotic tissues were dissected away and viable tissues were cut into 1-2 mm^2 pieces. Tumor fragments were then transplanted subcutaneously to the right flank of the nude mice. Treatment (administration of compounds of the present invention) was started when the inoculated tumors reached approximately 100 mm^3, and continued for four weeks. […] [table] Sizes of the primary tumors were measured through the skin with calipers once per week. […] Body weight of the mice in each group was also measured once per week during the experimental period. All animals were sacrificed following thirty-two days of treatment. Primary tumors were excised and weighed on an electronic balance. Blood samples were taken during terminal sacrifice and placed in microhematocrit tubes containing EDTA. Complete Blood Counts (CBC) and reticulocyte analysis were performed with the Cell Dyn 3700 analyzer (Abbott Diagnostics), as described by the manufacturer.
# [1] = tested on: human H-460-GFP lung tumors; test: Orthotopically implanted human H-460-GFP lung tumor mouse xenograft, survival and metastasis (Example 3); format: in vivo; conditions: for Metastatic Incidence (proportion of animals exhibiting mediastinal lymph node metastasis): vehicle 9/10
# Procedure: To examine the effect of methods and compounds of the present invention in a metastatic model of tumor progression, compounds of the invention were administered to orthotopically implanted H-460-GFP xenografted animals. Tumor models employing surgical orthotopic implantation (SOI) into the organ of origin of the original tumor are regarded as representative of cancer progression and metastasis in humans. Orthotopic implantation of H-460 increases the rate of tumor metastasis.
# This experiment is carried out as described in Example 1 above, with the following modifications. To aid in identification and scoring of metastasis, the human H-460 lung cancer cell line was replaced by genetically-engineered tumors of GFP-transfected H-460 cells. 1-2 mm^3 H460-GFP lung tumor fragments were implanted by surgical orthotopic implantation (SOI) and sutured directly into lung tissue. (Yang et al., (1998) Cancer Res 58:4217-4221.) Dosing was initiated immediately after successful confirmation of tumor take by fluorescent GFP imaging (˜5 days following tumor implantation). Doxorubicin (DOX, 7.5 mg/kg, i.v. administration) was used as a chemotherapy control, and was administered on treatment days 3, 7, and 11.
# In addition to weekly caliper measurement of primary tumor size, GFP imaging was performed on animals to monitor primary tumor progression and metastasis, starting the first day of treatment. Study endpoints were reached when an average tumor size of 2 cc or three morbid mice appear in any one group, whichever occurs first, regardless of treatment duration. Each animal was checked daily for mortality or signs of morbidity. Morbid animals were frozen. All animals, including dead animals, were examined by GFP imaging for primary tumor and metastasis at necropsy. Imaging and caliper measurements were used to determine the effects of treatment. Primary tumors were excised, measured and weighed at necropsy. Blood samples were taken during terminal sacrifice and complete blood counts (CBC) and reticulocyte analysis were performed.
# Tumor metastasis is associated with increased morbidity and mortality in humans with metastatic cancer and in animal models of metastatic cancer. […] The increased morbidity and mortality were recorded and animals were preserved for subsequent necropsy. The study was terminated after >3 animals were found morbid in the vehicle group on treatment day 14, at which point the remaining animals were sacrificed to evaluate and compare tumor progression in the various treatment groups.
# To determine metastatic frequency, the thoracic and abdominal cavities of animals were examined by fluorescent imaging.
# BNIP3 gene expression = BNIP3 gene expression in MCF7 cells; format: cell-based; conditions: Homo sapiens, MCF7, read-out: fold-increase in BNIP3 mRNA expression
# Procedure: To identify compounds useful in the methods of the present invention, the following studies were performed. The effect of compounds of the present invention on expression of various genes associated with anti-tumor activity (e.g., genes having anti-proliferative activity, genes having pro-apoptotic activity, genes having anti-tumor activity, etc.). In these experiments, the effect of compounds on BNIP3, BNIP3L, NDRG1, CDKN1C, and REDD1/RTP801 gene expression in various types of cultured tumor cells line was examined, including Hep3B cells (human hepatocellular carcinoma), Kelly neuroblastoma cells, and MCF7 cells (human breast cancer)
# The effects of various compounds of the present invention on the expression of genes associated with tumor growth and progression were examined in MCF7 breast cancer cells as follows. In some experiments, MCF7 (ATCC) cells were plated in 96-well tissue culture dishes (approximately 20,000 cells per well) and cultured in DMEM media supplemented with 10% serum. The following day, the cells were washed and the media was replaced with DMEM containing 0.5% FBS. Various compounds of the present invention were added to the cultured cells to a final concentration of 20 μM, and the cells cultured for an additional 20-24 hours. DMSO (0.5%) was added to control cell cultures. RNA was isolated as described above. Changes in gene expression levels are presented as fold change compared to that of control (0.5% DMSO-treated) cultures.
# In other experiments, MCF7 cells were plated in 96-well tissue culture dishes as described above. After 24 hours, the cells were washed and the media was replaced with DMEM containing 0.5% FBS. Various compounds of the present invention were added to the cultured cells to a final concentration of 20 μM. DMSO (0.5%) was added to control cell cultures. After 24 hours, changes in gene expression of BNIP3 and 18S RNA were determined directly using one-step quantitative multiplex RT-PCR reactions according to the manufacturer's instructions (QuantiTect Multiplex RT-PCR Kit, Qiagen, catalog no. 204643). Changes in gene expression levels are presented as fold change compared to that of control (0.5% DMSO-treated) cultures.
SMILES,"mean tumor volume (human H-460 lung tumors; day 0, 20 mg/kg PO) [mm^3]","mean tumor volume (human H-460 lung tumors; day 10, 20 mg/kg PO) [mm^3]","mean tumor volume (human H-460 lung tumors; day 17, 20 mg/kg PO) [mm^3]","mean tumor volume (human H-460 lung tumors; day 24, 20 mg/kg PO)","mean tumor volume (human H-460 lung tumors; day 31, 20 mg/kg PO)",Mean Tumor Weight at Necropsy (human H-460 lung tumors; 20 mg/kg PO) [g],Metastatic Incidence (proportion of animals exhibiting mediastinal lymph node metastasis) ([1]; 20 mg/kg),"proportion of surviving animals ([1]; treatment day 9, 20 mg/kg)","proportion of surviving animals ([1]; treatment day 11, 20 mg/kg)","proportion of surviving animals ([1]; treatment day 12, 20 mg/kg)","proportion of surviving animals ([1]; treatment day 13, 20 mg/kg)","proportion of surviving animals ([1]; treatment day 14, 20 mg/kg)",fold induction at 20 µM (BNIP3 gene expression),other results
"O=C(O)CNC(=O)c1nc(Cl)c2ccccc2c1O [Compound A, [(1-Chloro-4-hydroxy-isoquinoline-3-carbonyl)-amino]-acetic acid]",88,730,1376,2499** mm^3,2670** mm^3,3.05,8/10,10/10,10/10,10/10,8/10,8/10,,"mean tumor volume (human H-460 lung tumors; day 0, 60 mg/kg PO): 105 mm^3; mean tumor volume (human H-460 lung tumors; day 10, 60 mg/kg PO): 895 mm^3; mean tumor volume (human H-460 lung tumors; day 17, 60 mg/kg PO): 1742 mm^3; mean tumor volume (human H-460 lung tumors; day 24, 60 mg/kg PO): 2662* mm^3; mean tumor volume (human H-460 lung tumors; day 31, 60 mg/kg PO): 2968* mm^3; Mean Tumor Weight at Necropsy (human H-460 lung tumors; 60 mg/kg PO): 3.09 g; Metastatic Incidence (proportion of animals exhibiting mediastinal lymph node metastasis) ([1]; 60 mg/kg): 7/10; proportion of surviving animals ([1]; treatment day 9, 60 mg/kg): 10/10; proportion of surviving animals ([1]; treatment day 11, 60 mg/kg): 10/10; proportion of surviving animals ([1]; treatment day 12, 60 mg/kg): 9/10; proportion of surviving animals ([1]; treatment day 13, 60 mg/kg): 9/10; proportion of surviving animals ([1]; treatment day 14, 60 mg/kg): 9/10"
"C[C@H](NC(=O)c1ncc2cc(Oc3ccccc3)ccc2c1O)C(=O)O [Compound B, (S)-2-[(4-Hydroxy-7-phenoxy-isoquinoline-3-carbonyl)-amino]-propionic acid]",108,914,1858,3074 mm^3,3229 mm^3,3.60,,,,,,,4.5,"mean tumor volume (human H-460 lung tumors; day 0, 6 mg/kg PO): 101 mm^3; mean tumor volume (human H-460 lung tumors; day 10, 6 mg/kg PO): 884 mm^3; mean tumor volume (human H-460 lung tumors; day 17, 6 mg/kg PO): 1949 mm^3; mean tumor volume (human H-460 lung tumors; day 24, 6 mg/kg PO): 3131 mm^3; mean tumor volume (human H-460 lung tumors; day 31, 6 mg/kg PO): 3343 mm^3; Mean Tumor Weight at Necropsy (human H-460 lung tumors; 6 mg/kg PO): 4.27 g"
"COc1ccc(Oc2ccc3c(O)c(C(=O)NCC(=O)O)ncc3c2)cc1 [Compound C, {[4-Hydroxy-7-(4-methoxy-phenoxy)-isoquinoline-3-carbonyl]-amino}-acetic acid]",91,638,1365,2239** mm^3,2373** mm^3,2.35,5/10,10/10,10/10,9/10,8/10,8/10,5,
"Cc1nc(C(=O)NCC(=O)O)c(O)c2ccc(Oc3ccccc3)cc12 [Compound D, [(4-Hydroxy-1-methyl-7-phenoxy-isoquinoline-3-carbonyl)-amino]-acetic acid]",,,,,,,9/10,10/10,9/10,9/10,9/10,9/10,,
"O=C(O)CNC(=O)c1ncc2cc(Oc3ccc(F)cc3)ccc2c1O [Compound E, {[7-(4-fluoro-phenoxy)-4-hydroxy-isoquinoline-3-carbonyl]-amino}-acetic acid]",,,,,,,,9/10,9/10,9/10,8/10,8/10,5.3,
